PMC6967409 (Frontiers in Chemistry, 2020)
≈ marks a conversion by molar mass, not a printed value. Where “and” joins values, the source holds several entries; their conditions need not be identical. Identical values can stand only once. Like-named read-outs stand apart in the source and are kept apart here.

What was measured:
P. falciparum W2 [1] = test system: P. falciparum W2; design: method as in Coertzen et al. (2018); conditions: SYBR Green I; ref Coertzen et al. (2018); read-out: Proliferative IC50 W2; cited from earlier work
[2] = test system: P. falciparum ARC08-22 (4G); experiment: T0 [3H]-hypoxanthine drug susceptibility assay, artemisinin-resistant clone (C580Y); assay type: cell-based, Plasmodium falciparum; conditions: preliminary, W2 as comparative sensitive strain
[3] = test system: P. falciparum NF54 early stage gametocytes (>90% stage I–III); design: method as in Coertzen et al. (2018); conditions: read-out: Early Stage (EG, Luc 48 h) IC50; >90% stage I–III gametocytes; ref Coertzen et al. (2018); cited from earlier work
[4] = test system: P. falciparum NF54 late stage gametocytes (>90% stage IV and V); design: method as in Coertzen et al. (2018); conditions: read-out: Late Stage (LG, Luc 72 h) IC50; >90% stage IV and V gametocytes; ref Coertzen et al. (2018); cited from earlier work
[5] = test system: P. berghei ANKA GFP-Luc-SMcon sporozoites; experiment: P. berghei-luciferase liver stage bioluminescence assay (causal prophylactic mode) in HepG2-CD81 cells; assay type: cell-based, Plasmodium berghei; conditions: for Emax: 48 h, read-out: P.berghei-Luciferase Liver Stage Bioluminescence Assay: Maximum measured (%)
Protocol: (§1) Briefly, HepG2-CD81 cells were seeded into 1,536 well plates containing 50 nL of test and control compounds diluted into DMSO. […] Next, 2 μL of luciferin reagent (Promega BrightGlo) was added to each well and luciferase activity was detected using a Perkin Elmer Envision plate reader. […] In parallel, plates were processed without sporozoites for HepG2 toxicity measurements.
(§2) In continuation of the transmission blocking theme, it is important to establish activities against liver stage parasites. […] This assay uses ultra-high-throughput screening methods optimized for a 1536-well format and a HepG2 human hepatoma cell line. […] To establish selectivity of the compounds for the parasite in the liver stage of infection, cytotoxicity was determined by measuring bioluminescence from the reaction between free ATP of compound-treated, uninfected hepatocytes and a luciferase reporter system.

P. falciparum NF54 [6] = test system: P. falciparum NF54; design: method as in Coertzen et al. (2018); conditions: pLDH, 48 h; ref Coertzen et al. (2018); read-out: Metabolic IC50 NF54; cited from earlier work
P. falciparum NF54 [7] = test system: P. falciparum NF54; design: method as in Coertzen et al. (2018); conditions: SYBR Green I; ref Coertzen et al. (2018); read-out: Proliferative IC50 NF54; cited from earlier work
[8] = test system: P. falciparum PL08-009 (5C); experiment: T0 [3H]-hypoxanthine drug susceptibility assay, artemisinin-resistant clone (C580Y); assay type: cell-based, Plasmodium falciparum; conditions: preliminary, W2 as comparative sensitive strain
P. falciparum W2 [9] = experiment: T0 [3H]-hypoxanthine drug susceptibility assay; assay type: cell-based; conditions: Plasmodium falciparum; for IC50: W2, read-out: W2 IC50; for IC90: W2, read-out: W2 IC90
P. falciparum K1 = test system: P. falciparum K1; design: method as in Coertzen et al. (2018); conditions: SYBR Green I; ref Coertzen et al. (2018); read-out: Proliferative IC50 K1; cited from earlier work
[10] = test system: Chinese hamster ovarian (CHO) cells; conditions: read-out: Cytotoxicity EC50 CHO; MTT assay; ref Coertzen et al. (2018); cited from earlier work
HepG2 cells = experiment: HepG2 cytotoxicity bioluminescence assay (CellTiterGlo, ATP); assay type: cell-based, human; conditions: for HepG2 cytotoxicity IC50 (in words): at 25 μM (artemiside 7) and 50 μM (artemisone 8); for IC50 / HepG2 Cytotoxicity Bioluminescence Assay: Maximum measured (%): two biological replicates listed in one cell
Protocol: as §1, §2

[11] = as above; assay type: cell-based, human; conditions: human, uninfected HepG2-CD81 cells; for IC50 at 72 h: two biological replicates listed in one cell; for EC50 at 72 h: uninfected HepG2, ATP bioluminescence
Protocol: as §1, §2

P. falciparum Dd2 = test system: P. falciparum Dd2; design: method as in Coertzen et al. (2018); conditions: pLDH, 48 h; ref Coertzen et al. (2018); read-out: Metabolic IC50 Dd2; cited from earlier work
[12] = test system: Pf CamWT, Cam3.II, CamWTC580Y, Cam3.IIC580Y, Cam3.IIRev; design: method as in Lanteri et al., 2014; conditions: ref Lanteri et al., 2014; read-out: mean IC50 across CamWT, Cam3.II and K13 transfected strains; cited from earlier work
P. falciparum W2 [13] = test system: P. falciparum W2; design: method as in Lanteri et al., 2014; conditions: ref Lanteri et al., 2014; read-out: mean IC50 against W2; cited from earlier work
[14] = design: method as in Haynes et al., 2006; conditions: ref Haynes et al., 2006; cited from earlier work
[15] = Plasmodium berghei, two biological replicates listed in one cell
[16] = Plasmodium berghei, HepG2, 48 h, liver stage, HepG2 host cells, luciferase after 48 h, ±SD, read-out: P. berghei sporozoites IC50
[17] = Plasmodium berghei, two biological replicates listed in one cell, read-out: P.berghei-Luciferase Liver Stage Bioluminescence Assay: IC50

Compound: C[C@H]1[C@H](N2CCSCC2)O[C@@H]2O[C@@]3(C)CC[C@H]4[C@H](C)CC[C@@H]1[C@@]24OO3 [Artemiside 7, artemiside]
- IC50 (P. falciparum W2 [1]): 1.75 ± 0.27 nM
- susceptibility of ARC08-22 (4G) clone (in words) [2]: no indication of reduced susceptibility
- IC50 [3]: 16.4 ± 1 nM
- IC50 [4]: 1.5 ± 0.5 nM
- Emax [5, 15]: 98.1%
- IC50 [5, 16]: 81.3 ± 9.62 nM
- IC50 [5, 17]: 74.5 nM
- inhibition at 5 µM ([5]; Plasmodium berghei, Conc. 5 μM, read-out: P. berghei sporozoites Maximum inhibition %): 99 ± 1.34%
- IC50 ([5]; two biological replicates listed in one cell, listed as 7 Artemiside (GC008), read-out: P.berghei-Luciferase Liver Stage Bioluminescence Assay: IC50): 88.1 nM
- IC50 (P. falciparum NF54 [6]): 6 ± 1.8 nM
- IC50 (P. falciparum NF54 [7]): 1.11 ± 0.17 nM
- susceptibility of PL08-009 (5C) clone (in words) [8]: no indication of reduced susceptibility
- IC50 (P. falciparum W2 [9]): 2.21 ± 0.42 nM
- IC90 (P. falciparum W2 [9]): 4.28 ± 0.25 nM
- IC50 (P. falciparum K1): 1.6 ± 0.4 nM
- EC50 [10]: > 271 µM
- HepG2 cytotoxicity IC50 (in words) (HepG2 cells): no measurable IC50 values
- IC50 (HepG2 cells): > 25 µM
- HepG2 Cytotoxicity Bioluminescence Assay: Maximum measured (%) (HepG2 cells; listed as 7 Artemiside (GC008)): 30.4% and 36.5%
- IC50 at 72 h [11]: > 25 µM
- EC50 at 72 h [11]: > 25 µM
- IC50 (P. falciparum Dd2): 8.2 ± 1.4 nM

Compound: C[C@H]1[C@H](N2CCS(=O)(=O)CC2)O[C@@H]2O[C@@]3(C)CC[C@H]4[C@H](C)CC[C@@H]1[C@@]24OO3 [Artemisone 8, artemisone]
- IC50 [12]: 2.4 nM
- IC50 (P. falciparum W2 [1]): 1.6 ± 0.4 nM
- susceptibility of ARC08-22 (4G) clone (in words) [2]: no indication of reduced susceptibility
- IC50 [3]: 1.94 ± 0.11 nM
- IC50 [4]: 42.4 ± 3.3 nM
- Emax [5, 15]: 92.1%
- IC50 [5, 16]: 28 nM
- inhibition at 10 µM ([5]; Plasmodium berghei, read-out: P. berghei sporozoites Maximum inhibition %): 93.3 ± 1.76%
- IC50 [5, 17]: 27.4 nM
- inhibition of liver stage parasites ([5]; maintained down to 3 μM, 12-point titrations starting from 10 μM and […]): > 75%
- IC50 ([5]; read-out: P. berghei sporozoites IC50, liver stage, HepG2 host cells, luciferase after 48 h, ±SD): 28.3 ± 1.27 nM
- IC50 ([5]; two biological replicates listed in one cell, listed as 8 Artemisone (GC003), read-out: P.berghei-Luciferase Liver Stage Bioluminescence Assay: IC50): 29.2 nM
- IC50 (P. falciparum NF54 [6]): 3 ± 0.8 nM
- IC50 (P. falciparum NF54 [7]): 1.2 ± 0.4 nM
- susceptibility of PL08-009 (5C) clone (in words) [8]: no indication of reduced susceptibility
- IC50 (P. falciparum W2 [9]): 1.69 ± 0.36 nM
- IC90 (P. falciparum W2 [9]): 3.42 ± 0.45 nM
- IC50 (P. falciparum K1): 1.01 ± 0.19 nM
- EC50 [10]: > 249 µM
- IC50 (P. falciparum W2 [13]): 1.9 nM
- HepG2 cytotoxicity IC50 (in words) (HepG2 cells): no measurable IC50 values
- IC50 (HepG2 cells): > 50 µM
- HepG2 Cytotoxicity Bioluminescence Assay: Maximum measured (%) (HepG2 cells; listed as 8 Artemisone (GC003)): 11.8% and 16.0%
- IC50 at 72 h [11]: > 50 µM
- EC50 at 72 h [11]: > 50 µM
- IC50 (P. falciparum Dd2): 2.7 ± 0.3 nM

Compound: C[C@H]1[C@@H](O)O[C@@H]2O[C@@]3(C)CC[C@H]4[C@H](C)CC[C@@H]1[C@@]24OO3 [DHA 2, dihydroartemisinin]
- IC50 [12]: 11.2 nM
- IC50 (P. falciparum W2 [1]): 1.74 ± 0.22 nM
- IC50 [3]: 43 ± 3.9 nM
- IC50 [4]: 33.7 ± 1.98 nM
- IC50 (P. falciparum NF54 [6]): 0.8 ± 0.1 nM
- IC50 (P. falciparum NF54 [7]): 2.51 ± 0.19 nM
- IC50 (P. falciparum W2 [9]): 4.58 ± 2.54 nM
- IC90 (P. falciparum W2 [9]): 10.3 ± 5.76 nM
- IC50 (P. falciparum K1): 1.51 ± 0.33 nM
- EC50 [10]: 25.2 µM
- IC50 (P. falciparum W2 [13]): 5.2 nM
- IC50 (P. falciparum Dd2): 5.7 ± 2 nM

Compound: CC1CCC2C(C)C(NS(N)(=O)=O)OC3OC4(C)CCC1C32OO4 (centres unmarked) [Sulfamide 11]
- IC50 (P. falciparum W2 [1]): 2.04 ± 0.11 nM
- IC50 [3]: 15 ± 2 nM
- IC50 [4]: 419 ± 59.5 nM
- IC50 (P. falciparum NF54 [6]): 10.9 ± 3.4 nM
- IC50 (P. falciparum NF54 [7]): 3 ± 1 nM
- IC50 (P. falciparum W2 [9]): 4.87 ± 0.59 nM
- IC90 (P. falciparum W2 [9]): 7.53 ± 0.23 nM
- IC50 (P. falciparum K1): 1.78 ± 0.26 nM
- EC50 [10]: 56 ± 4.6 µM
- water solubility [14]: 294 mg/L (≈ 811 µM)
- IC50 (P. falciparum Dd2): 16.9 ± 2.6 nM
